Measurements reported in patent publication US12569506B2, “Methods of treating osteonecrosis with LLP2A-bisphosphonate compounds” (The Regents of the University of California, priority 2016, dated 2026).
“Also recorded” adds a separate entry of the source.

Tests used:
[1] = system: dexamethasone-treated mice; experiment: Histological evaluation (H&E) of femoral epiphyses, 90 day model; format: in vivo, BALB/c mice; details: Dex 4 mg/L in drinking water, day 90, femoral epiphyses (FIG. 9C-9F)
Procedure: FIG. 9A-9F. Histological evaluation of femurs from placebo- or dexamethasone-treated mice. Mice were treated with placebo (PL) or dexamethasone alone (Dex) as described above for FIG. 7. All mice were euthanized at day 90. Right and left distal femurs were fixed in 10% neutral buffer formalin and decalcified. The specimens were dehydrated, embedded in paraffin, cut into 5 micron sections and H&E stained. The sections were scored by two experienced histologists and then a consensus reading was performed by two additional histologists. FIG. 9A-9B: 4× (A) and 20× (B) magnifications of representative proximal femoral epiphyses in mice treated with placebo. (C) 4× magnification of a representative proximal femoral epiphyses in mice treated with dexamethasone (Dex) alone. FIGS. 9D, 9E, and 9F: 20× magnifications of representative proximal femoral epiphyses in mice treated with dexamethasone (Dex) alone.
FIG. 11A-11F. Histological evaluation of femurs from LLP2A-Ale-treated mice. Mice were treated with Dex+250 μg/kg LLP2A-Ale as described above for FIG. 7. All mice were euthanized at day 90. Right and left distal femurs were fixed in 10% neutral buffer formalin and decalcified. The specimens were dehydrated, embedded in paraffin, cut into 5 micron sections and H&E stained. The sections were scored by two experienced histologists and then a consensus reading was performed by two additional histologists. (A, D): 4× magnifications of representative proximal femoral epiphyses in mice treated with Dex+LLP2A-Ale. (B, C, E, F): 20× magnifications of representative proximal femoral epiphyses in mice treated with Dex+LLP2A-Ale.
(§1) Both the right and left distal femurs were fixed in 10% neutral buffered formalin and were shaken for 3 days, then decalcified in 5% EDTA until the bones were fully decalcified. The specimens were then processed in ascending concentrations of ethanol and embedded in paraffin. Tissue sections were cut into 5 microns sections, stained with hematoxylin and eosin and evaluated for the presence of osteonecrosis by bright field microscopy at 20× magnification. Experimental methods are also described in Mohan et al., Calif Tissue Int (2016) doi:10.1007/s00223-016-0195-6, which is incorporated herein by reference in its entirety for all purposes. Osteonecrosis was detected using modified criteria reported by Yang el al., (a mouse model for glucocorticoid-induced osteonecrosis: Effect of a steroid holiday. J Orthop Res. 2009; 27:169-75) which defines osteonecrosis as requiring all of the following changes: (1) empty lacunae, (2) pyknotic osteocyte nuclei in areas of empty lacunae and necrosis of adjacent bone marrow, (3) presence of excessive fat cells in the bone marrow, (4) cartilage degradation and (5) presence of fibrin thrombi in the blood vessels. In addition, trabecular bone volume, adipose volume, sinusoid volume and osteoblast surface at the distal femoral epiphyses were measured. Empty lacunae density was calculated by empty lacunae/total osteocytes within the entire distal femoral epiphysis region for each sample. Each section was scored by two experienced histologists, then a consensus reading was performed by two additional experienced histologists.

[2] = Body weight, 90 day model; format: in vivo, BALB/c mice; details: all Dex treated animals vs placebo, day 7 up to day 90 (p<0.05)
Procedure: All the mice were euthanized at day 90. The body weights of all the study animals were assessed each week. If the study animals had 10% loss of body weight compared to the previous week, the dose of dexamethasone was reduced to 2 mg/L, until weight gain was observed. All of the animals were injected with calcein (30 mg/kg) and alizarin red (20 mg/kg) at 7 and 2 days before euthanization.

[3] = system: CD31 and Endomucin expression; experiment: 30 and 45 day prevention study: blood vessels in the distal femur (CD31 and Endomucin expression); format: in vivo, BALB/c mice
Procedure: (§2) The efficacy of LLP2A-Ale and hPTH (1-34) was evaluated over a 30 and 45 day study using a mouse model of glucocorticoid-induced osteonecrosis. Seven week-old male BALB/c mice were randomized into Placebo group (fresh water), glucocorticoid only (4 mg/L dexamethasone (Dex) in drinking water), Dex+250 μg/kg LLP2A-Ale, Dex+500 μg/kg LLP2A-Ale, or Dex+40 μg/kg hPTH (administered five times a week) for 30 or 45 days. At day 30 or 45, the mice were sacrificed. Study endpoints included histological evidence of osteonecrosis, bone mass, and prevalent blood vessels (CD31 and Endomucin expression) in the distal femur, and was performed as set forth in Example 2. Non-parametric Kruskal-Wallis tests were used to determine the differences between the groups.

[4] = system: dexamethasone-treated mice; experiment: 30 and 45 day prevention study: trabecular bone histology of distal femur epiphyses; format: in vivo, BALB/c mice
Procedure: as §2

[5] = system: dexamethasone-treated mice; experiment: 30 and 45 day prevention study: incidence of glucocorticoid-induced osteonecrosis; format: in vivo, BALB/c mice; details: for Incidence of glucocorticoid-induced osteonecrosis: Dex alone 4 mg/L in drinking water; for Prevalence/incidence of glucocorticoid-induced osteonecrosis lesions (in words): 30 or 45 days, Dex + LLP2A-Ale 250 or 500 μg/kg, or Dex + 40 μg/kg hPTH five times a week (FIG. 12)
Procedure: FIG. 12. Reduction in incidence of glucocorticoid-induced osteonecrosis in mice treated with recombinant LLP2A-Ale. Mice were randomized into placebo (PL) (fresh water), dexamethasone (Dex) 4 mg/l in drinking water, Dex+250 μg/kg LLP2A-Ale, Dex+500 μg/kg LLP2A-Ale, or Dex+40 μg/kg hPTH (1-34) groups for a 30 day treatment period or a 45 day treatment period. The incidence of Dex-induced osteonecrosis was 57% on day 30 and 73% on day 45.
as §2

[6] = system: dexamethasone-treated mice; experiment: Empty lacunae density in distal femoral epiphysis, 90 day model; format: in vivo, BALB/c mice; details: distal femoral epiphysis, day 90; Dex only vs LLP2A-Ale 250, 500, 750 μg/kg groups (FIG. 8A-B)
Procedure: FIG. 8A-8B. Empty lacunae density of femurs from in dexamethasone-treated mice. Mice treated with placebo (PL), dexamethasone alone (Dex), Dex+250 μg/kg LLP2A-Ale, Dex+500 μg/kg LLP2A-Ale, or Dex+750 μg/kg LLP2A-Ale as described above for FIG. 7 were assessed for empty lacunae density within the distal femoral epiphysis region. Empty lacunae density was calculated by determining the number of empty lacunae in the entire distal femoral epiphysis region divided by the total number of osteocytes within the same region for each specimen. In the Dex only group, 75% of the samples had 10% or more empty lacunae, as compared to 44-62% of the samples in LLP2A-Ale-treated groups. A higher number of LLP2A-Ale 250 μg/kg, LLP2A-Ale 500 μg/kg, and LLP2A-Ale 750 μg/kg—treated samples had less than 10% empty lacunae as compared to Dex only treatment.
as §1, with “Experimental methods are also described in Mohan et al., Calif Tissue Int (2016) doi:10.1007/s00223-016-0195-6, which is incorporated herein by reference in its entirety for all purposes.” left out, “Each section was scored by two experienced histologists, then a consensus reading was performed by two additional experienced histologists.” left out

α4β1 integrin = α4β1 integrin (Homo sapiens, UniProt P05556+P13612); details: Liu 2006; Peng 2006; DeNardo 2009; cited from earlier work
Sequence of α4β1 integrin (P13612 34-1032): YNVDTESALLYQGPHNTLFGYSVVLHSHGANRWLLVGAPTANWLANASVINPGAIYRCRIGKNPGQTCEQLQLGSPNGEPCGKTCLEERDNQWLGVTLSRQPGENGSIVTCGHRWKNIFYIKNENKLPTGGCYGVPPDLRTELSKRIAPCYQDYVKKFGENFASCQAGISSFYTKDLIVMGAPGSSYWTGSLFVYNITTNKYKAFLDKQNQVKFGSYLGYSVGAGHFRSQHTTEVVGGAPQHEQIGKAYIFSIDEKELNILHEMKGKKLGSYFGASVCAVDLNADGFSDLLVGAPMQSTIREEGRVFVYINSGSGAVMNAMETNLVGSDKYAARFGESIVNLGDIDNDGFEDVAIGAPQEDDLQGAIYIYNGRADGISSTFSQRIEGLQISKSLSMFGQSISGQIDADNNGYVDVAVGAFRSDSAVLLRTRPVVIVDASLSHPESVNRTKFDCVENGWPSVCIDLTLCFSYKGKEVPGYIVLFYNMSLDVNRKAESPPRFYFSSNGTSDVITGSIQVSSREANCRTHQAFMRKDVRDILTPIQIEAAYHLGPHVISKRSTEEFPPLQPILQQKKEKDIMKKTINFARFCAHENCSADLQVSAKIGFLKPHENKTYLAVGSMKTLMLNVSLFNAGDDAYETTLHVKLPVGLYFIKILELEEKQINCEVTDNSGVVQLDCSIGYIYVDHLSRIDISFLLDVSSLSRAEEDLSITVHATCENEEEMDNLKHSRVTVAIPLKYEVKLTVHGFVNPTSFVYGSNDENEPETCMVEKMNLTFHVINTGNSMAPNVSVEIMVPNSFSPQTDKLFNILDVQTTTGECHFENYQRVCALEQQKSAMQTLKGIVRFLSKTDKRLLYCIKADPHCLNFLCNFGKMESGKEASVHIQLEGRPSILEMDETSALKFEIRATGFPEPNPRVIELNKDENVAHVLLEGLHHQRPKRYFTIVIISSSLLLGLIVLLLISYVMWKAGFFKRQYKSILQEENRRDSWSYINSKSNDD
Sequence of α4β1 integrin (P05556 21-798): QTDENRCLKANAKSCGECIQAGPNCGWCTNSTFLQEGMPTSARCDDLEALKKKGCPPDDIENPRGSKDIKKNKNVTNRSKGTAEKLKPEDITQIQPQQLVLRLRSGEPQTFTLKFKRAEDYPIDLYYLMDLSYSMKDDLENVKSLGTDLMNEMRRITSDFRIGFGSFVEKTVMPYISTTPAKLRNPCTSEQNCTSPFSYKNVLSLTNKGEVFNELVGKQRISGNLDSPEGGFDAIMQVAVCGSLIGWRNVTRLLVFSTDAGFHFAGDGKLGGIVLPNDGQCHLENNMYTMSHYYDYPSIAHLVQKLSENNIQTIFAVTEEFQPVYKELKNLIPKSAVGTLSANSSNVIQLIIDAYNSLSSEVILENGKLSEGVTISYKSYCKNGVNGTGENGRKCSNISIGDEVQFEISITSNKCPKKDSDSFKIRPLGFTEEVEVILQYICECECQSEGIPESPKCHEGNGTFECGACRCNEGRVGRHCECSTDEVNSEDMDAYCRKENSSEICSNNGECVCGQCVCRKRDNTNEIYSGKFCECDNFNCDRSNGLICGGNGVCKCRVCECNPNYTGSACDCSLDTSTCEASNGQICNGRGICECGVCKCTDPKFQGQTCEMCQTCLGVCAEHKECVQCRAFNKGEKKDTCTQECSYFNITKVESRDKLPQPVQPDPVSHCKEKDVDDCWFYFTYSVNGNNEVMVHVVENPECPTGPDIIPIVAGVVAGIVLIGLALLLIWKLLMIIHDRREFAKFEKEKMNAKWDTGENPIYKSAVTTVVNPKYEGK

[7] = system: glucocorticoid-treated mice; experiment: 56 day mouse model of glucocorticoid-induced osteonecrosis: femur blood vessel / vascular density by microCT; format: in vivo
Procedure: FIG. 2. Blood vessel density of femurs from glucocorticoid-treated mice. 4 month old male mice were treated glucocorticoid (“GC”) or placebo for 56 days. At day 28 a group of glucocorticoid-treated mice were treated with LLP2A-Ale or PTH for an additional 28 days.
FIG. 3. Vascular density of femurs from glucocorticoid-treated mice. 4 month old male mice were treated with glucocorticoid or placebo for 56 days. At day 28 a group of glucocorticoid-treated mice were treated with LLP2A-Ale or PTH for an additional 28 days. At day 56 animals were given a contrast agent and then sacrificed and then the animals femurs were decalcified and then scanned by microCT.
The efficacy of LLP2A-Ale was evaluated using a mouse model of glucocorticoid-induced osteonecrosis. 4-month-old male mice were treated for 56 days with glucocorticoids. At day 28, a group of mice was treated with either LLP2A-Ale or PTH for an additional 28 days. Blood vessel density of the femur was measured after sacrifice by microCT according to published methods. […] Vascular density of the femurs of glucocorticoid-treated mice subsequently treated with LLP2A-Ale or PTH was also assessed by giving the mice a contrast agent, then sacrificing the mice, decalcifying the femurs, and scanning the femurs by microCT. […] Without being bound to a particular theory, it is believed that LLP2A-Ale promotes increased vascularity by bringing MSCs to the bone that is turning over with osteonecrosis, which stimulates new blood vessel formation, which in turn is needed to stimulate new bone formation in the osteonecrotic bone.

[8] = system: glucocorticoid-treated mice; experiment: Trabecular bone volume in glucocorticoid-treated mice; format: in vivo; details: GC 28 days then treatment; change from day 28 to 56, measured in vivo (FIG. 6 left)
Procedure: FIG. 6. Trabecular bone volume in glucocorticoid-treated mice. Mice were treated for 28 days with glucocorticoid (GC), then treated with either LLP2A-Ale, PTH, or LLP2A-Ale+PTH. The outcome measure was the change in trabecular bone mass from day 28 to 56, measured in vivo at the distal femur (left panel) and change in trabecular bone mass for the vertebral trabecular bone volume (right panel).
Changes in trabecular bone mass during the treatment period for the distal femur and vertebral trabecular bone volume were measured.

## C[C@@H]1C[C@H]2[C@@H]3CCC4=CC(=O)C=C[C@]4(C)[C@@]3(F)[C@@H](O)C[C@]2(C)[C@@]1(O)C(=O)CO [Dex, dexamethasone]
[1]
  Histological findings of osteonecrosis with dexamethasone alone: Evidence of osteonecrosis was present throughout the epiphyses of the distal femurs; also recorded: necrotic trabeculae characterized by large empty lacunae
[1]; listed as dexamethasone
  Histological findings of osteonecrosis with dexamethasone alone: most of the bone marrow space was occupied by fat
[2]
  Body weight: significantly lower
[3]; Dex vs LLP2A-Ale, hPTH (1-34) or placebo, day 30 and 45 (data not shown)
  Staining intensity of CD31 and Endomucin expression: decreased the staining intensity
[4]; Dex vs placebo, day 30 and 45 (p<0.05)
  Trabecular thickness: significantly reduced
[4]; Dex, day 45 (p<0.05)
  Trabecular number: significantly reduced
[5]; day 30
  Incidence of glucocorticoid-induced osteonecrosis: 57%
[5]; day 45
  Incidence of glucocorticoid-induced osteonecrosis: 73%
[6]
  Samples with 10% or more empty lacunae: 75%

## Cc1ccccc1NC(=O)Nc1ccc(CC(=O)N[C@@H](CCCCNC(=O)/C=C/c2cccnc2)C(=O)N[C@@H](CCCC(=O)O)C(=O)NC2(C(N)=O)CCCCC2)cc1 [LLP2A]
α4β1 integrin
  Binding to α4β1 integrin (affinity and specificity in words): high-affinity, high-specificity

## hPTH (1-34): human PTH (1-34), 40 μg/kg five times a week in Example 3 (SVSEIQLMHNLGKHLNSMERVEWLRKKLQDVHNF; Parathyroid hormone; UniProt P01270 32-65, looked up, fragment)
[3]; 30 and 45 day study, conclusion
  Vascular integrity of the distal femur: maintained the vascular integrity
[4]; day 30 and 45, Dex vs placebo, treated vs Dex (p<0.05)
  Trabecular bone volume: higher bone volume
[4]; vs Dex group, day 30 and 45 (p<0.05)
  Trabecular separation: lower trabecular separation
[5]
  Prevalence/incidence of glucocorticoid-induced osteonecrosis lesions (in words): prevented incident GC-induced osteonecrosis lesions; also recorded: prevented glucocorticoid-induced osteonecrotic lesions
[5]; listed as hPTH
  Prevalence/incidence of glucocorticoid-induced osteonecrosis lesions (in words): reduced the incidence and severity of osteonecrosis

B1: PTH: parathyroid hormone, anabolic agent; given 20 ug/kg 5× a week in Example 1 (peptide, UniProt P01270 32-115, looked up)
Parathyroid hormone: SVSEIQLMHNLGKHLNSMERVEWLRKKLQDVHNFVALGAPLAPRDAGSQRPRKKEDNVLVESHEKSLGEADKADVNVLTKAKSQ
modifications: Parathyroid hormone
[7]; 4 month old male mice, GC 56 days, LLP2A-Ale or PTH from day 28 for 28 days, microCT after sacrifice (FIG. 2)
  Blood vessel density of the femur: significantly different from all other groups
[7]; contrast agent at day 56, decalcified femurs scanned by microCT (FIG. 3), vs GC alone
  Vascular density of femurs: did not exhibit a significant change in vascular density; also recorded: did not significantly change vascular density
[8]
  Change in trabecular bone mass/volume at the distal femur: increased the trabecular bone volume to the baseline/sham level
